According to US20070065443A1, “Fructoseamine 3 kinase and the formation of collagen and elastin” (priority 2004, published 2007):
“And” between values parts separate entries of the source, which are not always exact repeats. Identical values can stand only once.

Experiments:
3DG = assay: Plasma 3DG levels in diabetic and non-diabetic rats treated with 3-O-methyl sorbitollysine; type: in vivo, rat; conditions: for plasma 3DG level: 50 mg/kg body weight injections, within one week
Protocol: A cohort of twelve diabetic rats was divided into two groups of six. The first group received saline-only injections, and the second received injections of 3-O-methyl sorbitollysine (50 mg/kg body weight) in saline solution. The same procedure was conducted on a cohort of twelve non-diabetic rats.

[1] = Locus of 3-O-methyl sorbitollysine uptake in vivo (tissue, urine, plasma); parameters: species or system rat
Protocol: […] Urine was collected for 3 hours, after which the rats were sacrificed. The tissues to be analyzed were removed and freeze clamped in liquid nitrogen. Perchloric acid extracts of the tissues were used for metabolite analysis. The tissues examined were taken from the brain, heart, muscle, sciatic nerve, spleen, pancreas, liver, and kidney. Plasma was also analyzed.

STZ-diabetic rats = assay: Skin elasticity measurement (vacuum pull to displace skin); type: in vivo, rat; conditions: 50 mg/kg daily s.c. for eight weeks
Protocol: Experiments were performed to determine the effects of DYN 12 on the loss of skin elasticity associated with diabetes. To this end, two groups of STZ-diabetic rats and two groups of normal rats were subjected to treatment with DYN 12 or saline. One 'group of STZ-diabetic rats (n=9) received daily subcutaneous injections of DYN 12 at 50 mg/kg for eight weeks, as did one group of normal rats (n=6). A group of control diabetic rats (n=10) and a group of normal rats (n=6) received saline instead of DYN 12. One rat was removed from the diabetic DYN 12 group after 2 weeks because its blood glucose readings were inconsistent (too low) with other diabetic rats.
A non-invasive procedure based on CyberDERM, Inc. technology utilizing a skin elasticity measurement device was used to test the effects of DYN 12 treatment on skin elasticity. The procedure provides for non-invasive measurement of skin elasticity based upon the amount of vacuum pull required to displace skin. A suction cup probe is adhered to an area of shaved skin in order to form an airtight seal. Then, a vacuum is applied to the area of the skin inside the suction cup until the skin is displaced past a sensor located inside the probe. Accordingly, the more pressure that is required to displace the skin, the less elastic the skin is.

[2] = Distribution of DYN-12 in plasma, urine and kidney; type: in vivo, rat; conditions: individual rats, 100 micromols i.p.
Protocol: Rats were injected intraperitoneally with 1 ml of a 100 mM solution of DYN-12 (100 micromols). Urine was collected for 1 hr, and DYN-12 levels measured. After 1 hr the animals were sacrificed and DYN-12 levels measured in both plasma and kidney tissue.

fructoseamine kinase = target: T1, fructoseamine kinase (Homo sapiens, UniProt Q9H479); assay: Fructoseamine kinase inhibition (Ki); type: biochemical
T1 sequence (Q9H479 1-309): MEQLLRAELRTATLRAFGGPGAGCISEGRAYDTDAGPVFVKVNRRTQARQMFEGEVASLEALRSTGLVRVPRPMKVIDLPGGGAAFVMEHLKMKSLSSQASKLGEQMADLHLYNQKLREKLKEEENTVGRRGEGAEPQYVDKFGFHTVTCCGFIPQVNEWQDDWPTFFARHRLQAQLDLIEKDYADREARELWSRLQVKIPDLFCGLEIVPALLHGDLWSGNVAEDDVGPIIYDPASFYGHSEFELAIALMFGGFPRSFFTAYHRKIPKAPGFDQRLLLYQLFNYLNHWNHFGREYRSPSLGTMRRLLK

COC(C(O)CNCCCCC(N)C(=O)O)C(O)C(O)CO (stereo not drawn) [DYN 12, 3-O-methylsorbitollysine]
% Reduction of plasma 3DG vs saline only (3DG; diabetic rats): 53%
plasma 3DG level (3DG; diabetic rats): 0.44 ± 0.10 µM
% Reduction of plasma 3DG vs saline only (3DG; non-diabetic rats): 43%
plasma 3DG level (3DG; non-diabetic rats): 0.13 ± 0.02 µM
presence of the compound in plasma ([1]; 3 hours after i.p. injection): plasma did not
tissue extracts containing the compound ([1]; brain, heart, muscle, sciatic nerve, spleen, pancreas, liver, kidney examined, 3 hours): only tissue extract found to contain 3-O-methyl sorbitollysine was that of the kidney
nmols 3OMeSL in kidneys ([1]; individual rats, 13500 nmols i.p., 3 hours, listed as 3OMeSL): 8155 nmols and 3880 nmols and 10071 nmols and 6582 nmols and 5373 nmols and 4833 nmols
nmols 3OmeSL in urine ([1]; individual rats, 13500 nmols i.p., urine collected 3 hours, listed as 3OMeSL): 4200 nmols and 1355 nmols and 2940 nmols and 1675 nmols and 1778 nmols and 2360 nmols
% 3OMeSL recovered (of injected dose, urine and kidney) ([1]; individual rats, 3 hours after i.p. injection, listed as 3OMeSL): 91.5% and 38.8% and 96.4% and 61.2% and 53.0% and 53.3%
total 3OMeSL recovered ([1]; individual rats, urine plus kidneys, 3 hours, listed as 3OMeSL): 12355 nmols and 5235 nmols and 13011 nmols and 8257 nmols and 7151 nmols and 7193 nmols
pressure needed to displace the skin (STZ-diabetic rats): 3.2+/−1.2 kPA
DYN-12 concentration Kidney ([2]; 1 hr): 6.54 µmol/g and 9.19 µmol/g and 8.21 µmol/g
DYN-12 concentration Plasma ([2]; 1 hr): 0.335 µmol/mL and 0.269 µmol/mL and 0.296 µmol/mL
DYN-12 concentration Urine ([2]; urine collected 1 hr): 41.99 µmol/mL and 17.81 µmol/mL and 15.03 µmol/mL
Ki (fructoseamine kinase): 2000 to 3000 µM
